{"source": "patent US20190185896A1", "about": "“Stimulation of Regenerative Processes and Factors by Noble Gases” (NOBILIS THERAPEUTICS, INC., priority 2017, published 2019)", "key": {"Angiopoietin 1": {"test_system": "Angiopoietin 1", "test": "Angiopoietin 1 staining of adult mouse cutaneous wounds", "assay_type": "in vivo", "details": "mouse cutaneous wounds, 3, 5, 8 day after wound, versus 75% N2", "from_the_text": "(§1) To create the excisional wounds, adult mice were anesthetized and the dorsal skin was shaved, after sanitizing with 70% ethanol, 4 full-thickness excisional wounds were generated with a 4-mm sterile punch (stiefel laboratories, Research Triangel Park, N.C.). On the dorsal skin using 4-mm-diameter dermal biopsy punches through the two layers of skin (Miltex Inc.).\n(§2) The perfusion fixed skin tissue was cryosectioned (thickness 30 μm) and mounted on Superfrost Plus glass slides for the process of immunostaining analysis. The sections were initially incubated by a solution of 0.3% hydrogen peroxide in methanol to quench endogenous peroxidase before being exposed to a blocking solution of 0.1M phosphate buffered saline (PBS) containing 0.3% Triton X-100 and 3% natural sheep serum (NSS). Following this process of blocking the sections were incubated overnight at […] with rat polyclonal angiopoietin 1, VEGF, CD34, TGF-β (Abcam, UK). […]\n(§3) (A) Angiopoietin 1 staining of adult mouse cutaneous wounds. […] Right lane: the intensity of Angiopoietin 1 was quantified by densitometry and normalized by 75% N2 at 3 day (mean±S.D, n=10), * p<0.05. […] The intensity of VEGF was quantified by densitometry and normalized by 75% N2 at 3 day (mean±S.D, n=10), * p<0.05."}, "VEGF": {"test_system": "VEGF", "test": "VEGF staining of adult mouse cutaneous wounds", "assay_type": "in vivo", "details": "mouse cutaneous wounds, 3, 5, 8 day after wound, versus 75% N2", "from_the_text": "as §1, §2, §3"}, "[1]": {"test_system": "VEGF expression in fibroblasts", "test": "VEGF expression in fibroblasts in vitro (immunofluorescence staining, western blotting)", "assay_type": "cell-based", "details": "75% Argon+25% O2, 24 h after treatment"}, "skin wound": {"test_system": "skin wound", "test": "Skin wound healing in mice (excisional wounds)", "assay_type": "in vivo", "details": "75% Argon versus 75% nitrogen", "from_the_text": "as §1\nA Macroscopic changes in skin wound site in a mice treated with 75% nitrogen or Argon. Day 0 picture was taken immediately after injury. Representative images from 2 individual animals in both groups are shown."}, "CD34": {"test_system": "CD34", "test": "Anti-CD34 immunohistochemistry of skin wound samples (new vessels in the wound area)", "assay_type": "in vivo, mice", "details": "mouse skin wound samples, versus Nitrogen", "from_the_text": "as §1, §2\n(§4) (A) Immunohistochemical analyses using anti-CD34 in skin wound samples from the mice treated with Nitrogen and Argon. […] The numbers of new vessels per a high-power microscopic field (×100) in 10 fields/a slide was counted. […] The intensity of TGFβ was quantified by densitometry and normalized by 75% N2 at 3 day (mean±S.D, n=10), * p<0.05."}, "[2]": {"test_system": "a SMA expression in fibroblasts", "test": "a-SMA expression in fibroblasts in vitro (immunofluorescence staining, western blotting)", "assay_type": "cell-based", "details": "75% Argon+25% O2, 10 ng/ml TGF, 72 h after treatment", "description": "For in vitro fluorescence staining, cells were fixed in paraformaldehyde in 0.1 mol/l PBS solution. Cells were then incubated in 10% normal donkey serum in 0.1 mol/l PBS-Tween 20 and then incubated overnight with rabbit anti-angiopoietin-1 (1:200, Abcam), rabbit anti-TGF-β (1:200, Abcam), rabbit α-SMA (1:200, Abcam), followed by incubation with secondary antibody for 1 h. The slides were counterstained with nuclear dye DAPI and mounted with VECTASHIELD Mounting Medium (Vector Laboratories, Burlingame, Calif.). Sections were examined using an Olympus (Watford, UK) BX4 microscope.\nHUVEC cell sample was stored in a −80° C. freezer until use. Cell samples were homogenized in ice-cold cell lysis buffer (20 mM Tris pH 7.5, 1% Triton X-100, 150 mM sodium chloride, 1% pyrophosphate, 1% betaglycophosphate, 1% NP-40, 0.1% SDS, 1 mM EDTA, 100 μg/ml phenylmethylsulfonyl fluoride, 1 μg/ml aprotinin). All homogenates were then centrifuged for 20 minutes at 15,000 rpm at 4° C. The supernatants were then extracted and protein quantification was carried out using a Bradford protein quantification assay kit (Bio-Rad, Hemel Hempstead, UK). […]\nMembranes were then blocked in 5% non-fat powdered milk in TBST (50 mM Tris-HCl, 150 mM sodium chloride, 0.1% Tween 20, pH 7.4). […] Protein bands were then analyzed by densitometric quantification with Adobe PhotoShop (Adobe Systems, California, USA). […]"}, "[3]": {"test_system": "cerebral cortical neurons", "details": "75% concentration, in vitro, regardless of presence or absence of OGD injury; cited from earlier work"}, "TGF-β": {"test_system": "TGF-β", "test": "TGFβ staining of adult mouse cutaneous wounds", "assay_type": "in vivo", "details": "mouse cutaneous wounds, 3, 5, 8 day after wound, versus 75% N2", "from_the_text": "as §1, §2, §4"}, "HUVECs": {"test_system": "HUVECs", "test": "Cell migration scratch assay", "assay_type": "cell-based", "details": "75% argon for 2 hours, 16 hours post-exposure", "description": "The following was adopted from a previous published protocol (Liang et al., 2007) to study the influence of argon on migration of HUVECs. Prior to assay, HUVECs in EGM were re-suspended in incomplete LSGS medium and seeded onto pre-coated 12-well plates at a density of 2-3×10^5/well. The plates were incubated at 37° C. with 5% CO2 overnight for the cells to adhere to the gelatin surface as well as to create a confluent monolayer. Use of low serum condition is crucial as it ensures survival and attachment of cells while minimising their proliferation.\nOnce 100% confluence was reached, the monolayers were scraped using a sterile p1000 pipette tip along the middle to create a straight-line “scratch”. After cell debris was washed off, the wells were replenished with fresh incomplete-LSGS medium.\nThe plates were then exposed to normal air, 75% argon or 75% nitrogen for 2 hours. From 0 to 16 hours post-exposure, wells were examined every 4 hours. […] The cells were then fixed with 4% paraformaldehyde (Fischer, UK) for 8 minutes and stained with 0.1% crystal violet (Sigma-Aldrich, UK) for 10 minutes. Images were taken as described in the previous section."}}}
{"smiles": "[Ar]", "note": "[Argon, argon]", "values": [{"measurement": "Angiopoietin 1 expression in vivo", "setting": "Angiopoietin 1", "value": "enhanced"}, {"measurement": "VEGF expression in vivo", "setting": "VEGF", "value": "enhanced"}, {"measurement": "VEGF expression in vitro", "setting": "[1]", "value": "enhanced"}, {"measurement": "Skin wound healing", "setting": "skin wound", "value": "accelerated"}, {"measurement": "CD34 in vivo (new vessels in the wound area)", "setting": "CD34", "value": "enhanced"}, {"measurement": "a-SMA expression in vitro", "setting": "[2]", "value": "enhanced"}, {"measurement": "Viability and proliferation of cerebral cortical neurons", "setting": "[3]", "value": "potently enhanced"}, {"measurement": "TGF-β in vivo", "setting": "TGF-β", "value": "enhanced"}, {"measurement": "Scratch closure by migrating cells", "setting": "HUVECs", "value": "completely closed"}]}
